Columns and labels:
ENO2 = ENO2 (Homo sapiens, UniProt P09104); assay: Enolase enzymatic activity and Michaelis-Menten kinetic analysis, ENO2
Protocol: Human ENO1 and ENO2 were overexpressed in the human D423 cell line and used for enzymatic assays. […] Enzymatic activity was measured by monitoring fluorescence of NADH at 340 nm Exitation/460 nm emission using an Lactate dehydrogenase/Pyruvate kinase linked assay which links the formation of PEP to the oxidation of NADH to NAD+, as we have described in published work (Muller et al., 2012). Enzymatic activity was normalized to that in the absence of the inhibitor (set to 1) and plotted as function of inhibitor concentration.
The Michaelis-Menten Kinetic analysis was performed using standard methods in the field such as those taught by Voet and Voet, 2011. The enzymatic activity of Enolase 1 or 2 v was determine over a concentration range of 10 mM to 0.5 mM 2-PG [S], in the presence of increasing concentrations of inhibitor [I].
Native lysates of mouse tissues and human cell lines were prepared using 20 mM Tris HCl, 1 mM EDTA, and 1 mM β-mercaptoethanol at pH 7.4 and homogenized using a Polytron homogenizer three times for a period of 10 s followed by sonication, after which the lysates were cleared by centrifugation at 20,000 g for 10 minutes. Enolase activity was measured using two different methods, either by a fluorometric NADH-linked assay or a direct spectrophotometric assay via formation of PEP. In the fluorescent assay, enolase activity was measured via NADH oxidation in a pyruvate kinase-lactate dehydrogenase coupled assay as previously described (Muller, et al., 2012). The assay is conducted in 10 mM KCl, 5 mM MgSO4, 100 mM triethanolamine at pH 7.4, with 400 μM NADH and 2 mM ADP. 2-Phosphoglycerate (2-PGA), pyruvate kinase (PK) and lactate dehydrogenase (LDH) are provided in excess, with conversion of 2-PGA to PEP by enolase being rate limiting. PEP (with ADP) is substrate of PK; pyruvate formed by this reaction is linked to NADH oxidation by LDH. Enolase activity is determined by measuring oxidation of NADH fluorescently by excitation at 340 nm and emission at 460 nm. The substrate concentration, if not otherwise indicated, was 5 mM 2-PGA. Fluorescence was measured using Omega Fluorescence Plate Reader (BMG Labtech). Alternatively, Enolase activity was measured directly by the appearance of PEP from 2-PGA via absorption at 240 nm (Marangos, et al., 1978). The assay medium was the same, except that all the auxiliary reagents (PK/LDH, NADH, ADP) are omitted. Both assays were conducted in a 96-well plated format with the direct assay performed in UV-transmissible plates.

[1] = tested on: Gli56 ENO1-deleted glioma cells; assay: Cell proliferation by Incucyte, ten days; format: cell-based, human
Protocol: Cell proliferation of glioma cell lines was assayed either through crystal violet staining or by live-cell confluence measurements with the IncuCyte (Essen BioScience). Growth curves using the IncuCyte were generated by confluence imaging every 4 hours with duplicate replicates with an initial seeding of 1500 cells/well in 96-well plates. At the indicated time point, cells were fixed with 10% formalin and stained with crystal violet. Dye extraction was performed using 10% acetic acid solution, and absorbance was read at 595 nm. Apoptotic cells were counted by staining with YO-PRO®-1 Iodide (491/509, Life Technologies, Y3603). Apoptotic cells become permeable to YO-PRO®-1 while live cells are not stained. Alternatively, Propidium Iodide was employed (Life Technologies) instead of YO-PRO. Total cell number was quantified by Hoechst 33342 (Cat# H3570 Invitrogen). Cells were seeded as 2×10^3 cells/well in 96-well plates and treated in the presence or absence of doxycycline. […] Image capture and quantification was done by High Content Screening System—Operetta (Perkin Elmer). ATP content was measured with the luciferase/luciferin CellTiter-Glo® assay. […] Lysis was achieved by the […] in the buffer and vigorous pipetting, and luminescence was determined using an Omega Luminescence Plate Reader (BMG Labtech). […]

[2] = tested on: conversion of 13C-glucose to 13C-lactate in D423 ENO1-deleted glioma cells; assay: 13C-NMR tracing of uniformly labeled 13C-glucose to 13C-lactate; conditions: 48 hours, 10 mM 13C-uniformly labeled glucose
Protocol: Glucose labeled with heavy, non-radioactive, ^13C at carbon C-1 and ^13C at all carbon atoms were purchased from Cambridge Isotopes (CLM-420-1 and CLM-1396, respectively). Glucose free DMEM media was supplemented with 10 mM ^13C-1 or ^13C-all labeled Glucose. NMR metabolic tracing was performed by substituting conventional DMEM medium with glucose free DMEM medium, to which ^13C-1 glucose (Cambridge Isotopes) was supplemented at 10 mM. […] After 4 days, conditioned media was extracted with 80% methanol at −80° C., lyophilized and resuspended in D2O. Proton-decoupled ^13C NMR spectra were acquired using a 500 MHZ Bruker instrument in the M. D. Anderson NMR core facility.

enolase 2 = biological target: T1, enolase 2 (Homo sapiens, UniProt P09104); assay: Thermal shift assay in intact glioma cells overexpressing ENO2 (D423 ENO2); format: cell-based; conditions: 100 μM inhibitor
T1 construct: expressed in transfected cells; host or cells: D423 (D423-MG) human glioma cells, clone pCMV ENO2 1x
Protocol: (§1) Thermal shift assays were conducted as described in Martinez Molina, et al. (2013), on lysates of D423 cell line overexpressing ENO1 and ENO2, on recombinant human ENO1 and ENO2 purified from E. coli as well as intact D423 ENO2 overexpressing glioma cells. […] Lysates were diluted (1:100) in Enolase enzymatic activity buffer as mentioned above. Diluted lysates were treated with SF2312, PhAH or vehicle and heated on a C1000 Thermal cycler (Bio-rad) with a linear temperature gradient (50 to 82.5° C. in 2.5° C. increments) for 3 minutes (FIG. 24). The lysates were then centrifuged at 20,000 g for 10 minutes. Supernatant and pellet were then separated and NuPage LDS Sample buffer (Life Technologies # NP0007) was added. Western Blots were performed as described previously (Muller, et al., 2012). The following antibodies were used: ENO1 (Abcam # ab155102), ENO2 (Dako # M087301-2), Vinculin (EMD Millipore #05-386), pan-ENO (Santa Cruz Biotechnology, sc-7455) and TPI (Proteintech #10713-1-AP). Recombinant human ENO2: The same procedure was carried out on purified recombinant ENO2 from E. coli, utilizing the purified protein generated for the X-ray crystallography studies. […]

[3] = tested on: Vinculin or Triosephosphate isomerase; assay: Thermal shift assay, internal controls; format: binding, human
Protocol: as §1

enolase (ENO1 and ENO2) = assay: Enolase inhibitory activity in vitro, isoform not distinguished (ENO1 and ENO2); format: biochemical, human; conditions: isolated enzymatic assay
Protocol: Human ENO1 and ENO2 were overexpressed in the human D423 cell line and used for enzymatic assays. Inhibitors (PhAH, SF2312 and Deoxy-SF2312, Hex, Hepta, Pom-Hex, and Fosmidomycin) were incubated with the enzyme prior to addition of 5 mM 2-PG substrate. Enzymatic activity was measured by monitoring fluorescence of NADH at 340 nm Exitation/460 nm emission using an Lactate dehydrogenase/Pyruvate kinase linked assay which links the formation of PEP to the oxidation of NADH to NAD+, as we have described in published work (Muller et al., 2012). Enzymatic activity was normalized to that in the absence of the inhibitor (set to 1) and plotted as function of inhibitor concentration.
Enolase activity was measured using two different methods, either by a fluorometric NADH-linked assay or a direct spectrophotometric assay via formation of PEP. In the fluorescent assay, enolase activity was measured via NADH oxidation in a pyruvate kinase-lactate dehydrogenase coupled assay as previously described (Muller, et al., 2012). The assay is conducted in 10 mM KCl, 5 mM MgSO4, 100 mM triethanolamine at pH 7.4, with 400 μM NADH and 2 mM ADP. 2-Phosphoglycerate (2-PGA), pyruvate kinase (PK) and lactate dehydrogenase (LDH) are provided in excess, with conversion of 2-PGA to PEP by enolase being rate limiting. PEP (with ADP) is substrate of PK; pyruvate formed by this reaction is linked to NADH oxidation by LDH. Enolase activity is determined by measuring oxidation of NADH fluorescently by excitation at 340 nm and emission at 460 nm. The substrate concentration, if not otherwise indicated, was 5 mM 2-PGA. Fluorescence was measured using Omega Fluorescence Plate Reader (BMG Labtech). Alternatively, Enolase activity was measured directly by the appearance of PEP from 2-PGA via absorption at 240 nm (Marangos, et al., 1978). The assay medium was the same, except that all the auxiliary reagents (PK/LDH, NADH, ADP) are omitted. Both assays were conducted in a 96-well plated format with the direct assay performed in UV-transmissible plates.

Chain of ENO2 (P09104 whole entry): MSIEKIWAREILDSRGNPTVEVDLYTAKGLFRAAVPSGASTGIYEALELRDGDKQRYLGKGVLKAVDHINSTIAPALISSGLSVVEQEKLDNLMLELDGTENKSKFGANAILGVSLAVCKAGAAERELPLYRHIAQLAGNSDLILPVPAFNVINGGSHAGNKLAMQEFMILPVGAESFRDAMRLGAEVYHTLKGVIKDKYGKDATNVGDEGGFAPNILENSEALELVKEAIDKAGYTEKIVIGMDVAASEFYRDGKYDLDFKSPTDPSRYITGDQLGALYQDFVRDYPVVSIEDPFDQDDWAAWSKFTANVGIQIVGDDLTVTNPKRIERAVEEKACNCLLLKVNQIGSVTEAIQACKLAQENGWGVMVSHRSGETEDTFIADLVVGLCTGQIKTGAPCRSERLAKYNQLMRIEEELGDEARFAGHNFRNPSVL
T1 sequence (P09104 whole entry): as above

Structure (SMILES): O=C1C(P(=O)(O)O)CC(O)N1O (racemic) [SF2312, 3-dihydroxyphosphoryl-1,5-dihydroxy-2-pyrrolidone]
- IC50 (ENO2): ~20 nM
- potency against ENO2 versus ENO1 (IC50 lower / activity greater for ENO2) (ENO2; ENO2 over ENO1): 10 fold
- inhibition kinetics with respect to substrate 2-PGA (ENO2; SF2312: at IC50): non-competitive kinetics
- fold more potent at inhibiting proliferation of Gli56 ENO1-deleted cells compared to ENO1-intact glioma lines [1]: ≤ 128 fold
- concentration sufficient to decrease the ratio of 13C Lactate/13C glucose by 70% [2]: 6.25 µM
- shift of the thermal melting curve of ENO2 in intact glioma cells (enolase 2): ~15 °C
- effect on the thermal stability of the internal controls [3]: neither PhAH nor SF2312 had any effect
- IC50 lower than that of PhAH (enolase (ENO1 and ENO2)): about 50%

Reference: patent publication US10363261B2, “Enolase inhibitors and methods of treatment therewith” (Board of Regents, The University of Texas System, priority 2015, dated 2019)
